Assay results from ChEMBL document CHEMBL1201862, “PubChem BioAssay data set” (2004).
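Protocol summary: plate cells (96-well), add compound at 5 concentrations, incubate 48 h, interpolate endpoints linearly. GI50 is the concentration that inhibits growth by half.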 Active and inactive are the calls of the source. Cut-off read from the data, not from the text of the source: active = GI50 up to about 1.1 µM and inactive = higher.

Key:
Experiment in all cases: NCI anticancer screen, dose series, 48 h
[1] = system: 786-0
[2] = system: A498
[3] = system: A549
[4] = system: ACHN
[5] = system: BT-549
[6] = system: CAKI-1
[7] = system: CCRF-CEM
[8] = system: COLO 205
[9] = system: DU-145
[10] = system: EKVX
[11] = system: HCC 2998
[12] = system: HCT-116
[13] = system: HCT-15
[14] = system: HOP-62
[15] = system: HOP-92
[16] = system: HT-29
[17] = system: Hs-578T
[18] = system: IGROV-1
[19] = system: KM12
[20] = system: LOX IMVI
[21] = system: M14
[22] = system: MCF7
[23] = system: MDA-MB-231
[24] = system: MDA-MB-435
[25] = system: MDA-N
[26] = system: MOLT-4
[27] = system: Malme-3M
[28] = system: NCI-H226
[29] = system: NCI-H23
[30] = system: NCI-H460
[31] = system: NCI-H522
[32] = system: NCI/ADR-RES
[33] = system: OVCAR-3
[34] = system: OVCAR-4
[35] = system: OVCAR-5
[36] = system: OVCAR-8
[37] = system: PC-3
[38] = system: RPMI-8226
[39] = system: RXF 393
[40] = system: SF-268
[41] = system: SF-295
[42] = system: SF-539
[43] = system: SK-MEL-28
[44] = system: SK-MEL-2
[45] = system: SK-MEL-5
[46] = system: SK-OV-3
[47] = system: SN12C
[48] = system: SNB-19
[49] = system: SNB-75
[50] = system: SR
[51] = system: SW-620
[52] = system: T47D
[53] = system: TK-10
[54] = system: U-251
[55] = system: UACC-257
[56] = system: UACC-62
[57] = system: UO-31

O=C(O)CSc1ccc(N=C=S)cc1
GI50 [1]: 82.6 µM (inactive)
GI50 [2]: 52.2 µM (inactive)
GI50 [3]: > 100 µM (inactive)
GI50 [4]: > 100 µM (inactive)
GI50 [5]: 56.2 µM (inactive)
GI50 [6]: > 100 µM (inactive)
GI50 [7]: 12.6 µM (inactive)
GI50 [8]: 53.2 µM (inactive)
GI50 [9]: 75.2 µM (inactive)
GI50 [10]: > 100 µM (inactive)
GI50 [11]: 31.1 µM (inactive)
GI50 [12]: 64.3 µM (inactive)
GI50 [13]: 62.8 µM
GI50 [14]: 54.1 µM (inactive)
GI50 [15]: > 100 µM (inactive)
GI50 [16]: > 100 µM (inactive)
GI50 [17]: 47.5 µM (inactive)
GI50 [18]: > 100 µM (inactive)
GI50 [19]: > 100 µM (inactive)
GI50 [20]: 48.6 µM (inactive)
GI50 [21]: 86.1 µM (inactive)
GI50 [22]: 56 µM (inactive)
GI50 [23]: 84.1 µM (inactive)
GI50 [24]: 81.8 µM (inactive)
GI50 [25]: 54.1 µM (inactive)
GI50 [26]: 20.4 µM (inactive)
GI50 [27]: 27.4 µM (inactive)
GI50 [28]: 54.5 µM (inactive)
GI50 [29]: 78.9 µM (inactive)
GI50 [30]: 56.9 µM (inactive)
GI50 [31]: 19.1 µM (inactive)
GI50 [32]: > 100 µM (inactive)
GI50 [33]: 94 µM (inactive)
GI50 [34]: > 100 µM (inactive)
GI50 [35]: > 100 µM (inactive)
GI50 [36]: 71.4 µM (inactive)
GI50 [37]: 73.3 µM (inactive)
GI50 [38]: 20.8 µM (inactive)
GI50 [39]: 28.4 µM (inactive)
GI50 [40]: 71.6 µM (inactive)
GI50 [41]: 89.3 µM (inactive)
GI50 [42]: 30.5 µM (inactive)
GI50 [43]: 34.8 µM (inactive)
GI50 [44]: 73.3 µM (inactive)
GI50 [45]: 37.8 µM (inactive)
GI50 [46]: > 100 µM (inactive)
GI50 [47]: 39.3 µM (inactive)
GI50 [48]: > 100 µM (inactive)
GI50 [49]: > 100 µM (inactive)
GI50 [50]: 3.43 µM (inactive)
GI50 [51]: > 100 µM (inactive)
GI50 [52]: 72.4 µM (inactive)
GI50 [53]: 75 µM (inactive)
GI50 [54]: 72.3 µM (inactive)
GI50 [55]: 29.5 µM (inactive)
GI50 [56]: 61 µM (inactive)
GI50 [57]: > 100 µM (inactive)
